# Tests used:
# 5-HT1B receptor = 5-HT1B receptor (Homo sapiens, UniProt P28222); experiment: cAMP accumulation agonist assay at 5-HT1B; type: cell-based; conditions: cAMP, agonist; read-out: 5-HT1B EC50
# In short: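 Agonism was measured by cAMP accumulation in stably transfected cells incubated 60 min at RT. A detection reagent was then added for 60 min at RT before reading, with an 800 nM cAMP standard in blank wells.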
# 5-HT2A receptor [1] = target: T1, 5-HT2A receptor (Homo sapiens, UniProt P28223); experiment: PathHunter beta-arrestin recruitment assay at 5-HT2A; type: cell-based; conditions: 5-HT2A beta-arrestin
# T1 construct: host or cells: HEK293
# Description: The degree of arrestin bias varied substantially across the other compounds tested as well.
# Arrestin Functional Assay at 5-HT2A. Recruitment of beta-arrestin was determined using a PathHunter assay at Eurofins DiscoverX (Fremont, Calif.) according to their standard protocols. PathHunter GPCR beta-arrestin assays take advantage of DiscoverX's proprietary Enzyme Fragment Complementation technology. The GPCR is fused in frame with a small enzyme donor fragment ProLink™ (PK) and co-expressed in cells stably expressing a fusion protein of beta-arrestin and the larger, N-terminal deletion mutant of beta-galactosidase. Activation of the GPCR (5-HT2A receptor in this case) stimulates binding of beta-arrestin to the PK-tagged GPCR and forces complementation of the two enzyme fragments, resulting in the formation of an active beta-galactosidase enzyme. This interaction leads to an increase in enzyme activity that can be measured using chemiluminescent PathHunter Detection Reagents. Briefly, PathHunter cells expressing 5-HT2A receptors were seeded in a volume of 20 μL into 384-well plates and incubated at 37° C. for the appropriate time prior to testing. […] Plates were then imaged on a microplate reader and the agonist activity was calculated using the following formula: % Activity=100%×(mean RLU of test sample−mean RLU of vehicle control)/(mean MAX control ligand−mean RLU of vehicle control), where RLU=relative light units.
# Alpha1A receptor = target: T2, Alpha1A receptor (Homo sapiens, UniProt P35348); experiment: FLIPR Ca^2+ flux agonist assay at Alpha1A; type: cell-based
# T2 sequence (P35348 1-466): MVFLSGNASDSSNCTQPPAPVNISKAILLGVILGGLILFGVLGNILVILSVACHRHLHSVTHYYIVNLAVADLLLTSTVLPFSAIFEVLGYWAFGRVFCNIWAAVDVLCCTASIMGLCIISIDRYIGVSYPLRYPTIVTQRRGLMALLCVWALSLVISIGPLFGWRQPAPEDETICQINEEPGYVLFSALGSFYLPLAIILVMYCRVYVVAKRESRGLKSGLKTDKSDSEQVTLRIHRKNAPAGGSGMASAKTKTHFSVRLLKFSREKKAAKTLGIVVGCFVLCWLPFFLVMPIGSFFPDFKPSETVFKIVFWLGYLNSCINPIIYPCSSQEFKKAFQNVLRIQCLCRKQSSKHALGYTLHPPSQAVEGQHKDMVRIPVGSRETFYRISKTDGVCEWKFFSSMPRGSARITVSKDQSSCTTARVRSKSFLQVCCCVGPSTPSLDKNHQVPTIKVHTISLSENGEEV
# Description: Disclosed compounds were tested for agonist activity at several adrenergic (Alpha1A and Alpha2A) and dopamine (D1 and D2) receptor subtypes using Ca^2+ flux functional assays, with the results summarized in Table 6. Selectivity for the 5-HT2A receptor over these other targets varied depending on the specific target and compound.
# (§1) Functional Assays at Adrenergic and Dopamine Receptors. Agonist activity at Alpha1A, Alpha2A, D1, and D2 receptors was determined using a FLIPR Ca^2+ flux assay at WuXi AppTec (Hong Kong) Limited according to their standard protocols. Briefly, stably transfected cells expressing the receptor of interest were grown and plated in a 384 well plate and incubated at 37° C. and 5% CO2 overnight. A solution of 250 mM probenecid in 1 mL FLIPR assay buffer was prepared fresh. This was combined with a fluorescent dye (Fluo-4 Direct™) to make a final assay concentration of 2.5 mM. Compounds were diluted 1:3.16 for 10 points and 750 nL was added to a 384 well compound plate using ECHO along with 30 μL assay buffer. The fluorescent dye was then added to the assay plate along with assay buffer to a final volume of 40 μL. The cell plate was incubated for 50 min at 37° C. and 5% CO2 and placed into the FLIPR Tetra along with the compound plate. 10 μL of references and compounds were then transferred from the compound plate into the cell plate and the fluorescent signal was read.
# D1 receptor = D1 receptor (Homo sapiens, UniProt P21728); experiment: FLIPR Ca^2+ flux agonist assay at D1; type: cell-based
# Description: as §1, with “Compounds were diluted 1:3.16 for 10 points and 750 nL was added to a 384 well compound plate using ECHO along with 30 μL assay buffer.” left out
# D2 receptor = D2 receptor (Homo sapiens, UniProt P14416); experiment: FLIPR Ca^2+ flux agonist assay at D2; type: cell-based
# Description: as §1, with “Compounds were diluted 1:3.16 for 10 points and 750 nL was added to a 384 well compound plate using ECHO along with 30 μL assay buffer.” left out
# [2] = Metabolic stability in human liver microsomes (HLM); type: in vitro ADME; conditions: for t1/2: 1 μM, 0.50 mg protein per mL; for microsomal CLint at 1 μM: both sexes, human, pooled human liver microsomes, pH 7.4, 0.50 mg protein per mL
# Source text: HLM Stability. Pooled HLM from adult male and female donors (Corning 452117) were used.
# [3] = Metabolic stability in mouse liver microsomes (MLM); type: in vitro ADME; conditions: 0.50 mg protein per mL; for t1/2: MLM (CD-1), 1 μM; for microsomal CLint at 1 μM: mouse, pooled mouse liver microsomes, pH 7.4, MLM (CD-1)
# Source text: MLM Stability Pooled MLM from CD-1 mice (BIOIVT M00501) were used.
# [4] = Metabolic stability in rat liver microsomes (RLM); conditions: for t1/2: RLM, 0.50 mg protein per mL; for microsomal CLint at 1 μM: both, rat, pooled rat liver microsomes, pH 7.4
# 5-HT2A receptor [5] = target: T1, 5-HT2A receptor; experiment: biochemical; type: binding; conditions: 1 nM [^3H]ketanserin, HEK293 stable cell line; read-out: 5-HT2A Receptor Ki (nM) ([^3H]ketanserin)
# In short: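 Affinity was measured in radioligand binding experiments using [^3H]ketanserin as the labelled ligand, following methods adapted from published procedures.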
# 5-HT2A receptor [6] = target: T1, 5-HT2A receptor; experiment: cell-based; type: cell-based; conditions: Ca^2+ flux, agonist; read-out: 5-HT2A EC50
# 5-HT1A receptor = target: T3, 5-HT1A receptor (Homo sapiens, UniProt P08908); experiment: cell-based; conditions: Ca^2+ flux, agonist; read-out: 5-HT1A EC50
# T3 construct: host or cells: CHO cells
# T3 sequence (P08908 1-422): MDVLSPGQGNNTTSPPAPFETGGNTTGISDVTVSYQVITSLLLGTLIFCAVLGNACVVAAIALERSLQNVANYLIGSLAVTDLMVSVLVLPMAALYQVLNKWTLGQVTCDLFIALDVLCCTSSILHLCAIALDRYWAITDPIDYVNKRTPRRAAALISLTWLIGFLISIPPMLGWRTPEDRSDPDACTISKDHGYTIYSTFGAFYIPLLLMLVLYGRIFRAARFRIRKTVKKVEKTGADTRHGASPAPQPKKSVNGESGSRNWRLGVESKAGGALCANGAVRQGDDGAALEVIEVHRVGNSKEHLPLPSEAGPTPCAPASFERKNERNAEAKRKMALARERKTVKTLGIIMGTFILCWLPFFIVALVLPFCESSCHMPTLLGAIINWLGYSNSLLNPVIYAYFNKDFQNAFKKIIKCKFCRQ
# 5-HT2B receptor = target: T4, 5-HT2B receptor (Homo sapiens, UniProt P41595); experiment: cell-based; conditions: Ca^2+ flux, agonist; read-out: 5-HT2B EC50
# T4 construct: host or cells: HEK293
# T4 sequence (P41595 whole entry): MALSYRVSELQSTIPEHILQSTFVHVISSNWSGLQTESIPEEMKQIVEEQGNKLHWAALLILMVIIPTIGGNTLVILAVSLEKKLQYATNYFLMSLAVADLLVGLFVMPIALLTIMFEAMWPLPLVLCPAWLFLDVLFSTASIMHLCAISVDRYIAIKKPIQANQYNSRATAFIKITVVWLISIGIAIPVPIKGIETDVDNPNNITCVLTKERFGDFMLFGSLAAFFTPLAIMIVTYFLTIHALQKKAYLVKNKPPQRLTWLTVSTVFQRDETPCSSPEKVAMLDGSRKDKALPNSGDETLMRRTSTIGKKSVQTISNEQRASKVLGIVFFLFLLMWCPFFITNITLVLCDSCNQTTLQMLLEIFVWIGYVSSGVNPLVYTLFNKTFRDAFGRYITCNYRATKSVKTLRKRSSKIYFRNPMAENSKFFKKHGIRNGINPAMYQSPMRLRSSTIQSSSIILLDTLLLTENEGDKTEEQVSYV
# Chain of 5-HT1B receptor (P28222 whole entry): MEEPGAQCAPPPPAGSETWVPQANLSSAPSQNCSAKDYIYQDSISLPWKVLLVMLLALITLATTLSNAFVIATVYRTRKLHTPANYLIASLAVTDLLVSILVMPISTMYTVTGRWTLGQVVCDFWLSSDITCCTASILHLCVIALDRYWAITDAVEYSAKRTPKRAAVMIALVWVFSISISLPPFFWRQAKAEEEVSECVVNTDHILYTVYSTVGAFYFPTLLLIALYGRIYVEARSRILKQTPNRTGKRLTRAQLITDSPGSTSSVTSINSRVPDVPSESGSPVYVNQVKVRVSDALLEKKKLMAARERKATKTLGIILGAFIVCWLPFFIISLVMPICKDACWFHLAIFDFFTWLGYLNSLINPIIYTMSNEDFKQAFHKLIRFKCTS
# T1 sequence (P28223 whole entry): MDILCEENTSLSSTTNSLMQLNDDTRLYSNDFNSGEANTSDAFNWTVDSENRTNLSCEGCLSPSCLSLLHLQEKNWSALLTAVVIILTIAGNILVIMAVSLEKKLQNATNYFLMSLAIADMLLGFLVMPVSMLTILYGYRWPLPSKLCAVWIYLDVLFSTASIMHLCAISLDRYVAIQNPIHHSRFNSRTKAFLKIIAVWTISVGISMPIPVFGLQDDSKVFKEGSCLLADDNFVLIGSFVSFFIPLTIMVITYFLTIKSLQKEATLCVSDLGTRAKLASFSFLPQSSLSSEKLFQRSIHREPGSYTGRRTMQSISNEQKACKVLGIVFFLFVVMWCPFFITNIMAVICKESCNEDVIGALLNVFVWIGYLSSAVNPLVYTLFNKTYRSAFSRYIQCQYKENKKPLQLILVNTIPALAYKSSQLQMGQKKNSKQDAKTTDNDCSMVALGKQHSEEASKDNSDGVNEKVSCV
# Chain of D2 receptor (P14416 whole entry): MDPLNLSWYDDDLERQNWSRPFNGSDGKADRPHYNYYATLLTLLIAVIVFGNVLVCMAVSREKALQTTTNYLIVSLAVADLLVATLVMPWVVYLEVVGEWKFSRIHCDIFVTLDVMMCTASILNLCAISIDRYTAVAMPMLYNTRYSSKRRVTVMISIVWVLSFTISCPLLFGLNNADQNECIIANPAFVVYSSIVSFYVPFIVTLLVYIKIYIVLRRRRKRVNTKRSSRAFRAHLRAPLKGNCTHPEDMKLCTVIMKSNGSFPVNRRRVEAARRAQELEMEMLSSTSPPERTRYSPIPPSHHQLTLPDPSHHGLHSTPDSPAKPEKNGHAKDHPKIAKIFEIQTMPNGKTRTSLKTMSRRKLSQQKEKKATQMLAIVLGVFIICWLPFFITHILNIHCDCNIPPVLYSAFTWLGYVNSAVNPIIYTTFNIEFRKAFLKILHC
# Chain of D1 receptor (P21728 whole entry): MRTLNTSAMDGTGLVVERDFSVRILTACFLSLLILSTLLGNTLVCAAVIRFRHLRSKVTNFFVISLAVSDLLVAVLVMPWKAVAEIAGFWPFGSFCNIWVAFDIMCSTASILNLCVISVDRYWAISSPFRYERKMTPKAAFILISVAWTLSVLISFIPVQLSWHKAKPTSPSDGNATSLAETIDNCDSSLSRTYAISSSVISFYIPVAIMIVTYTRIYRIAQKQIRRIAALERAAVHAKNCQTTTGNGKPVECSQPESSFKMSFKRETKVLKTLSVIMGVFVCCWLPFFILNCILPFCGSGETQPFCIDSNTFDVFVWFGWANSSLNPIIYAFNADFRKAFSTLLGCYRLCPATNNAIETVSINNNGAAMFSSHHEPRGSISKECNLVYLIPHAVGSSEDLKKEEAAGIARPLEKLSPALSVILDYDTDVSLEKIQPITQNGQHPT
SMILES,EC50 (5-HT1B receptor),Emax (5-HT2A receptor [1]),agonist type in arrestin recruitment assay (in words) (5-HT2A receptor [1]),EC50 (Alpha1A receptor),EC50 (D1 receptor),EC50 (D2 receptor),t1/2 [2],microsomal CLint at 1 μM [2],t1/2 [3],microsomal CLint at 1 μM [3],t1/2 [4],microsomal CLint at 1 μM [4],Ki (5-HT2A receptor [5]),EC50 (5-HT2A receptor [6]),EC50 (5-HT1A receptor),EC50 (5-HT2B receptor)
"CCN(CC)C(=O)[C@@H]1C=C2c3cccc4[nH]cc(c34)C[C@H]2N(C)C1 [LSD, lysergic acid diethylamide, reference compound]",2.06 nM,< 60%,partial agonists,91.1 nM,4.87 nM,4.93 nM,71.6 min,19.4 µL/min/mg,31.3 min,44.2 µL/min/mg,60.2 min,23 µL/min/mg,,,,
"CCN(CC)C(=O)[C@@H]1C=C2c3cccc4[nH]cc(c34)C[C@H]2N(CC2CC2)C1 [Compound 13, (6aR,9R)—N,N-diethyl-7-(cyclopropylmethyl)-4,6,6a,7,8,9-hexahydroindolo[4,3-fg]quinoline-9-carboxamide]",98.6 nM,,,44.6 nM,,,21.1 min,65.7 µL/min/mg,3.7 min,376 µL/min/mg,27.7 min,50 µL/min/mg,2.23 nM,25.9 nM,15.3 nM,182 nM
"CCN(CC)C(=O)[C@@H]1C=C2c3cccc4[nH]cc(c34)C[C@H]2N(CCC(F)(F)F)C1 [Compound 12, (6aR,9R)—N,N-diethyl-7-(3,3,3-trifluoropropyl)-4,6,6a,7,8,9-hexahydroindolo[4,3-fg]quinoline-9-carboxamide]",194 nM,,,> 3160 nM,,,13.5 min,103 µL/min/mg,2.1 min,655 µL/min/mg,5.9 min,236 µL/min/mg,5.61 nM,52.9 nM,2140 nM,154 nM

# — US20230116703A1, “NOVEL ERGOLINES AND METHODS OF TREATING MOOD DISORDERS” (priority 2021, published 2023)
